What all share (assay): DTP human tumour cell line panel, 48 h
For assay [1], the system named is HS 578T breast.
Assay [2] has as its system MALME-3M melanoma.
Assay [3] relates to DU-145 prostate.
Assay [4] deals with T-47D breast.
Assay [5] concerns SR leukemia.
For assay [6], the system named is M14 melanoma.
The subject of assay [7] is SK-MEL-28 melanoma.
The subject of assay [8] is MDA-MB-435.
Assay [9] deals with EKVX NSCLC.
Assay [10] concerns U251 CNS.

This is an account of results in PubChem BioAssay (NCI).

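Dose response: 5 concentrations. Exposure: 48 h. Format: 96-well plates. Endpoint: linear interpolation; highest concentration if not reached. At the GI50, growth is halved. TGI: total growth inhibition.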

As a reminder, the GI50 is the concentration giving 50% growth inhibition. The TGI is the concentration giving total growth inhibition. Higher therefore signals less potent growth arrest.

For the compound `COc1ccc(/C=C/C(=O)c2ccc(O)c(CN3CCN(c4cc5c(cc4F)c(=O)c(C(=O)O)cn5C4CC4)CC3)c2)cc1`, the GI50 was 0.714 µM in assay [1]; 1.59 µM in assay [2]; 1.47 µM in [3]; 1.83 µM in [4]; 0.354 µM in [5]; 1.13 µM in [6]. Also, the GI50 was 1.72 µM in assay [7], 2.17 µM in assay [8], 8.35 µM in assay [9] and 0.387 µM in assay [10]. Besides, the TGI is > 100 µM in assay [1]; 16.4 µM in assay [2]; > 100 µM in [3]; > 100 µM in assay [4]; 14.9 µM in assay [5]; > 100 µM in [6]. Besides, the TGI in assay [7], in [8], in assay [9] and in [10] was > 100 µM each time.
As to `CN(C)CCNC(=O)c1cc([N+](=O)[O-])cc2c1Oc1ccccc1O2`, the TGI was 99.8 µM in assay [1]; 97.9 µM in [2]; > 100 µM in assay [3]; 69.6 µM in assay [4]; > 100 µM in [5]; > 100 µM in assay [6]. Also, the concentration for total growth inhibition (TGI) in assay [7], in [8], in assay [9] and in [10] was > 100 µM each time.
Consider `CNC(=O)c1cccc2cc(Oc3ccnc4cc(OCC5(N)CC5)c(OC)cc34)ccc12`, for which the GI50 was 5.5 µM in [1]; 9.07 µM in assay [2]; 12.1 µM in assay [3]; 17.8 µM in assay [4]; 2.29 µM in assay [5]; 8.47 µM in assay [6]. Further, the GI50 in assay [7] is 10.4 µM; in assay [8], 3.09 µM; in assay [9] it was 14.6 µM; in [10], 9.43 µM. Moreover, the TGI in [1] stood at 30.2 µM; in assay [2] it was 26.8 µM; in assay [3], 25.5 µM; in [4] it was 39.2 µM; in [5], 10.6 µM; in assay [6] it was 24.3 µM. Besides, the TGI in assay [7] is 30.3 µM; in [8], 12 µM; in assay [9], 34.5 µM; in assay [10] it was 23.3 µM.
As to `COc1cc2oc3cc(=O)cc4oc(-c5ccccc5)cc(c2c2c1CCC(c1ccccc1)O2)c43` (centres undefined), the concentration for total growth inhibition (TGI) was > 100 µM in assay [1]; > 100 µM in assay [2]; > 100 µM in assay [3]; 54.8 µM in [4]; > 100 µM in assay [5]; 33.4 µM in [6]. The TGI in assay [7] was > 100 µM; in assay [8], 56 µM; in [9], > 100 µM; in [10] it was > 100 µM.
`c1cc2n(n1)CCN2`: the concentration for total growth inhibition (TGI) in assay [1] is > 5490 µM; in [2], 9920 µM; in [3], > 10000 µM; in assay [4], > 10000 µM; in [5], > 9010 µM; in [6], 5760 µM. The TGI in assay [7] was > 10000 µM; in [8], > 10000 µM; in [9], 6630 µM; in [10], 5740 µM.
As to `COc1c(O)cc2oc(-c3ccc(O)cc3)cc(=O)c2c1O`, the TGI is 73.8 µM in assay [1]; > 100 µM in [2]; > 100 µM in assay [3]; > 100 µM in assay [4]; 63.6 µM in assay [5]; > 100 µM in assay [6]. Moreover, the total growth inhibition concentration (TGI) is > 100 µM in [7], > 100 µM in assay [8], 98.1 µM in assay [9] and > 100 µM in assay [10].
`COc1cccc2c1ccc1nc3cccc(C(=O)N[C@H](C)CN(C)C)c3nc12`: the 50% growth inhibitory concentration (GI50) in [1] was 0.166 µM; in assay [2], 0.0806 µM; in [3], 0.0735 µM; in assay [4], 0.159 µM; in assay [5], 0.0315 µM; in [6] it was 0.138 µM. Moreover, the GI50 in [7] was 0.221 µM; in [8] it was 0.0976 µM; in assay [9] it was 0.141 µM; in [10] it was 0.0441 µM. Also, the TGI in assay [1] is 3.42 µM; in assay [2] it was 0.473 µM; in assay [3] it was 3.71 µM; in [4], 0.974 µM; in assay [6], 0.339 µM; in [7] it was 1.51 µM. The figures for the TGI in assay [8], in assay [9] and in [10] were 0.986 µM, 3.16 µM and 8.28 µM, respectively.
For `O=C(Nc1ccncc1)C(=O)c1cn(Cc2ccc(Cl)cc2)c2ccccc12`, the GI50 is 0.0339 µM in assay [1]; 0.0414 µM in assay [2]; 0.051 µM in [3]; 0.0436 µM in [4]; 0.0298 µM in [5]; 0.048 µM in assay [6]. Also, the GI50 in assay [7] was 0.0711 µM; in assay [8], < 0.01 µM; in assay [9] it was 0.261 µM; in assay [10], 0.0472 µM. In addition, the total growth inhibition concentration (TGI) in [1] is > 100 µM; in assay [2], > 100 µM; in assay [3], > 65 µM; in assay [4], > 100 µM; in assay [5], > 100 µM; in assay [6], > 100 µM. For the same compound, the TGI in [7] was > 100 µM; in [8], 0.044 µM; in [9], > 100 µM; in assay [10], > 100 µM.
With `C=C1/C(=C\C=C2/CCC[C@]3(C)[C@@H]([C@H](C)CCCC(C)(C)O)CC[C@@H]23)C[C@@H](OC(=O)CBr)C[C@@H]1O`, the GI50 in [1] was 1.79 µM; in [2], 0.184 µM; in assay [3], 12.4 µM; in assay [4] it was 2.71 µM; in assay [5], 0.0902 µM; in assay [6], 2.71 µM. For the same compound, the GI50 in assay [7] was 4.95 µM; in assay [8] it was 4.22 µM; in assay [9] it was 3.17 µM; in [10], 4.51 µM. Moreover, the TGI in [1] came to 8.12 µM; in assay [2], 0.674 µM; in [3], 26.6 µM; in assay [4], 19.3 µM; in assay [5], 1.5 µM; in [6], 8.74 µM. Moreover, the total growth inhibition concentration (TGI) in [7] was found to be 10.9 µM; in [8], 10.9 µM; in assay [9], 19.5 µM; in assay [10] it was 18.8 µM.
